According to patent publication US4439460A, “Dipeptide sweetener sulfate and sulfonate salts” (G. D. Searle & Co., priority 1982, dated 1984):
Where a SMILES comes first, the peptide text is derived from it.

How the values were obtained:
[1] = Thermal stability examination: oven at 170° C., HPLC analysis; assay type: physicochemical; details: for degradation: after seven, fifteen or twenty-five minutes heating at about 170° C.; for % Degradation, 7 Minutes (170° C.) / % Degradation, 15 Minutes (170° C.) / Physical Appearance after 25 Minutes at 170° C. / % Degradation, 25 Minutes (170° C.): oven 170° C.; for % Degradation, 7 Minutes (170° C.) / % Degradation, 15 Minutes (170° C.) / % Degradation, 25 Minutes (170° C.): HPLC
Procedure: Samples of the salts of Examples 1 and 2 having weights equivalent to about 40 mg of APM and reference samples (40 mg) of free base aspartylphenylalanine methyl ester (APM) and the corresponding hydrochloride dihydrogen phosphate (H2 PO4) and bisulfate (HSO4) salts having weights equivalent to about 40 mg APM were placed in individual 10 ml beakers and put in an oven pre-heated to 170° C. The samples were allowed to bake for predetermined times (7, 15 and 25 minutes) after which they were removed from the oven and analyzed by HPLC using the foregoing HPLC methods.

[2] = Rate of dissolution studies in beverage media; assay type: physicochemical; details: for Media Dissolution Times, medium 4: ambient temperature coffee (80 ml); for Media Dissolution Times, medium 4 / Media Dissolution Times, medium 2 / Media Dissolution Times, medium 3: with stirring; for Media Dissolution Times, medium 4 / Media Dissolution Times, medium 1 / Media Dissolution Times, medium 2 / Media Dissolution Times, medium 3: salt equimolar with 57 mg APM; for Media Dissolution Times, medium 1: refrigerated carbonated water (240 ml), without stirring; for Media Dissolution Times, medium 2: refrigerated lemonade with no sugar (240 ml); for Media Dissolution Times, medium 3: refrigerated coffee (80 ml)
Procedure: Samples of the salts of Examples 1, 2 and the APM hydrochloride and corresponding bisulfate and dihydrogen phosphate salts were employed to determine relative dissolution rates in beverage media. The amount of salt used in each instance was calculated to be equimolar with 57 mg of APM. The tests were conducted in four types of liquid beverage media; (1) refrigerated carbonated water (240 ml), (2) refrigerated lemonade without sugar (240 ml), (3) refrigerated coffee (80 ml), (4) coffee at ambient temperature (80 ml). The dissolution rates in medium 1 were measured without stirring and the rates in 2, 3 and 4 were measured with stirring. Dissolution was deemed complete when solid particles or a cloudy appearing medium were no longer present.

[3] = Shelf life determination: accelerated storage, HPLC assay; assay type: physicochemical
Procedure: Two sets of samples of the APM sulfate salt of Example 1, APM hydrochloride and APM each having a weight equivalent to […] APM were placed in ovens which contained an open beaker of water. The first set of samples was heated at 70° and 100 percent humidity for 14.7 days. The second set of samples was heated at 85° and atmospheric humidity for 14.7 days. The samples were periodically analyzed by the HPLC method as described above in order to determine percent decomposition.

[4] = Taste of baked dipeptide sweetened yellow cakes; details: single blind conditions
Procedure: A taste test of the baked dipeptide sweetened yellow cakes can also be conducted under standard single blind conditions.
(§1) Yellow cakes were baked following a standard recipe, but substituting a dipeptide sweetener or its salt and Maltrin M-100 (a modified maltodextrin starch bulking agent) for sugar. The liquid ingredients were creamed together then folded into a sifted mixture of the dry ingredients. The resulting dough was placed in a greased 8-inch cake pan and baked at 350° for 40 minutes. Three cakes were baked in this manner; cake 1 contained (APM-H)2 SO4, cake 2 contained APM-HCl, cake 3 contained APM.

[5] = Thermal stability studies in baked cake: HPLC of core samples; assay type: physicochemical; details: for sweetener recovery: typical cake test, baked at 350° Fahrenheit for about thirty to forty-five minutes
Procedure: In this test sweetened yellow cakes are prepared following well-known procedures and using the appropriate ingredients but substituting dipeptide sweetener for sugar. Use of examples of salts of the invention and reference dipeptides and salts such as the hydrochloride will produce eight-inch yellow cakes which are ready for sweetener content comparison. The cakes are typically baked at 350° Fahrenheit (about 175° C.) for about thirty to forty-five minutes. Taking core sections of the sample cakes and analyzing for dipeptide sweetener content allows determination of the percent degradation of the form of the dipeptide sweetener used. In a typical thermal stability cake test, a cake baked with the sulfate salt of the invention will have about […] more dipeptide sweetener in it than a cake baked with the hydrochloride salt; compare, for example, about 34 percent sweetener recovery for the sulfate with about 25 percent for the hydrochloride.
as §1
The liquid ingredients included milk (193 g), shortening (54 g), egg (53 g, 1 egg), vanilla (3.6 g); the dry ingredients included flour (167 g), baking powder (6.9 g), salt (3.4 g), maltrin M-100 (126.5 g) dipeptide sweetener salt: (APM-H)2 SO4 (cake 1) (1.2 g), APM-HCl (cake 2) (1.2 g), APM (cake 3) (1.0 g).
Core samples were taken from each of the three cakes and the samples were analyzed by HPLC methods as described in Example 1.

Row | Compound | degradation [1] | % Degradation, 7 Minutes (170° C.) [1] | % Degradation, 15 Minutes (170° C.) [1] | Physical Appearance after 25 Minutes at 170° C. [1] | % Degradation, 25 Minutes (170° C.) [1] | Media Dissolution Times, medium 4 [2] | Media Dissolution Times, medium 1 [2] | Media Dissolution Times, medium 2 [2] | HPLC Assay (% composition) APM, 6.8 days ([3]; 70°, 100 percent humidity) | APM % Initial (APM remaining after 14.7 days relative to the initial APM) ([3]; 70°, 100 percent humidity) | HPLC Assay (% composition) AP, 14.7 days ([3]; 70°, 100 percent humidity) | HPLC Assay (% composition) APM, 14.7 days ([3]; 70°, 100 percent humidity) | HPLC Assay (% composition) APM, 6.8 days ([3]; 85° C., atmospheric humidity) | HPLC Assay (% composition) DKP, 6.8 days ([3]; 85° C., atmospheric humidity) | APM % Initial (APM remaining after 14.7 days relative to the initial APM) ([3]; 85° C., atmospheric humidity) | HPLC Assay (% composition) AP, 14.7 days ([3]; 85° C., atmospheric humidity) | HPLC Assay (% composition) APM, 14.7 days ([3]; 85° C., atmospheric humidity) | HPLC Assay (% composition) DKP, 14.7 days ([3]; 85° C., atmospheric humidity) | HPLC Assay (% composition) APM, Initial ([3]; initial, before storage) | cake sweetness, panel taste testing [4] | further results
1 | COC(=O)[C@H](Cc1ccccc1)NC(=O)[C@@H](N)CC(=O)O.CS(=O)(=O)O [Ex. 2] (H-Asp-Phe-OMe) | about 30% | 0.0% | 0.5% | off white powder | 28.0% | 167 s | 168 s | 250 s | – | – | – | – | – | – | – | – | – | – | – | – | –
2 | COC(=O)[C@H](Cc1ccccc1)NC(=O)[C@@H](N)CC(=O)O.COC(=O)[C@H](Cc1ccccc1)NC(=O)[C@@H](N)CC(=O)O.O=S(=O)(O)O [Ex. 1, Bis(hydrogen aspartylphenylalanine methyl ester) sulfate] (H-Asp-Phe-OMe) | less than 10% | 1.3% | 0% | white cryst. powder | 5.5% | 22 s | 22 s | About 0 seconds | 83.9% | 96.7% | .20% | 82.1% | 83.0% | 0.15% | 95.4% | .20% | 80.9% | .08% | 84.8% | approximately equal to that of sugar | degradation in shelf life stability tests ([3]; about 85° for about 15 days or 70° for about 15 days at 100 percent humidity): less degradation than the hydrochloride salt; dissolution rate relative to the corresponding hydrochloride salt [2]: at least approximately five to six times faster; Media Dissolution Times, medium 3 [2]: 24 s; dissolution of a sweetening amount in refrigerated lemonade [2]: completely dissolve in refrigerated lemonade without stirring; sweetener recovery [5]: about 34%; more dipeptide sweetener in cake than a cake baked with the hydrochloride salt ([5]; typical thermal stability cake test): about 50%
3 | COC(=O)[C@H](Cc1ccccc1)NC(=O)[C@@H](N)CC(=O)O.O=P(O)(O)O [D] (H-Asp-Phe-OMe) | – | 0.1% | 60.6% | yellow powder | 86.6% | 600 s | – | – | – | – | – | – | – | – | – | – | – | – | – | – | –
4 | COC(=O)[C@H](Cc1ccccc1)NC(=O)[C@@H](N)CC(=O)O.O=S(=O)(O)O [C, aspartylphenylalanine methyl ester bisulfate] (H-Asp-Phe-OMe) | ≤ 85% | 62.8% | 78.2% | melted colorless | 89.2% | 330 s | – | – | – | – | – | – | – | – | – | – | – | – | – | – | –
5 | COC(=O)[C@H](Cc1ccccc1)NC(=O)[C@@H](N)CC(=O)O.Cl [B, aspartylphenylalanine methyl ester hydrochloride] (H-Asp-Phe-OMe) | at least 45% | 2% | 8.5% | melted, light-brown | 44.7% | 90 s | 120 s | 52 s | 77.7% | 93.6% | .36% | 75.1% | 62.1% | 4.0% | 57.3% | 1.6% | 46.0% | 3.2% | 80.2% | – | HPLC Assay (% composition) AP, 6.8 days ([3]; 70°, 100 percent humidity): .33%; HPLC Assay (% composition) DKP, 6.8 days ([3]; 70°, 100 percent humidity): .25%; HPLC Assay (% composition) DKP, 14.7 days ([3]; 70°, 100 percent humidity): .60%; HPLC Assay (% composition) AP, 6.8 days ([3]; 85° C., atmospheric humidity): 1.1%; Media Dissolution Times, medium 3 [2]: 94 s; dissolution of a sweetening amount in refrigerated lemonade [2]: require significant time and stirring to dissolve; sweetener recovery [5]: about 25%
6 | COC(=O)[C@H](Cc1ccccc1)NC(=O)[C@@H](N)CC(=O)O [A, aspartylphenylalanine methyl ester] (H-Asp-Phe-OMe) | ≤ 85% | 0% | 22.2% | light-gray material | 87.6% | – | – | – | 95.3% | 95.9% | 0.21% | 92.6% | 95.2% | 1.6% | 94.9% | .20% | 91.7% | 2.0% | 96.6% | little sweetness and a flat taste | HPLC Assay (% composition) DKP, 6.8 days ([3]; 70°, 100 percent humidity): 1.1%; HPLC Assay (% composition) DKP, 14.7 days ([3]; 70°, 100 percent humidity): 1.2%; HPLC Assay (% composition) DKP, Initial ([3]; initial, before storage): 1.0%
